Test systems include SF-539 CNS; SW-620 colon; SK-MEL-28 melanoma; SNB-19 CNS; SF-268 CNS; HOP-92 NSCLC; RPMI-8226 leukemia; SK-OV-3 ovarian; CCRF-CEM leukemia; SN12C renal.
Experiment in all cases: inhibition of tumour cell growth, NCI panel, 48 h

Data on two compounds can be found in PubChem BioAssay (NCI).

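Cultured in 96-well plates, cells were exposed to test compound for 48 hours across five concentrations. The concentration for 50% growth inhibition is given as GI50. TGI denotes the concentration required for complete inhibition of growth.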

As to `Cc1cc(C)c(S(=O)(=O)Oc2ccccc2[N+](=O)[O-])c(C)c1`, the GI50 in the experiment on SF-539 CNS is 2.16 µM; in the experiment on SW-620 colon, 0.583 µM; with SK-MEL-28 melanoma it was 5.46 µM; in the experiment with SNB-19 CNS, 4 µM; in the experiment on SF-268 CNS it was 4.57 µM; in the experiment on HOP-92 NSCLC it was 1.98 µM. Also, the GI50 in the experiment with RPMI-8226 leukemia was 2.54 µM; with SK-OV-3 ovarian it was 2.81 µM; with CCRF-CEM leukemia, 2.15 µM; with SN12C renal, 14.7 µM. Moreover, the TGI with SF-539 CNS is greater than 23.1 µM; in the experiment on SW-620 colon, greater than 100 µM; in the experiment on SK-MEL-28 melanoma, greater than 100 µM; with SNB-19 CNS, greater than 100 µM; in the experiment on SF-268 CNS it was greater than 100 µM; in the experiment on HOP-92 NSCLC it was 25.4 µM. Also, the TGI in the experiment on RPMI-8226 leukemia is greater than 100 µM; in the experiment on SK-OV-3 ovarian, greater than 29.2 µM; with CCRF-CEM leukemia, greater than 100 µM; with SN12C renal, greater than 100 µM.
Regarding `Nc1nc(N)c2ncn(Cc3c(Cl)cccc3Cl)c2n1`, the TGI in the experiment with SF-539 CNS, in the experiment on SW-620 colon, with SK-MEL-28 melanoma, with SNB-19 CNS, in the experiment with SF-268 CNS and in the experiment with HOP-92 NSCLC was greater than 100 µM throughout. The TGI in the experiment on RPMI-8226 leukemia, in the experiment with SK-OV-3 ovarian, in the experiment on CCRF-CEM leukemia and with SN12C renal was greater than 100 µM in each case.
